What was measured:
Test in all cases: relative viability (nuclei count vs DMSO), 5 days (fraction); higher = more cells survive
HCC-366 = system: HCC-366
How it was run: (§1)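 Lung cancer cell lines were pin-tool dosed in 1536-well plates on the day after seeding, with either a lone drug or a fixed anchor-drug dose plus five library-drug doses (not always all listed) in √10 steps. Nuclei were counted on 4× images after 5 days. Relative viability is the ratio of treated-well to vehicle-well nuclei counts, with each value a median of duplicate plates.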

NCI-H460 = system: NCI-H460
How it was run: as §1

LCLC-103H = system: LCLC-103H
How it was run: as §1

NCI-H1975 = system: NCI-H1975
How it was run: as §1

NCI-H727 = system: NCI-H727
How it was run: as §1

NCI-H1355 = system: NCI-H1355
How it was run: as §1

HCC-827 = system: HCC-827
How it was run: as §1

A-427 = system: A-427
How it was run: as §1

NCI-H1437 = system: NCI-H1437
How it was run: as §1

EMC-BAC-2 = system: EMC-BAC-2
How it was run: as §1

HOP-62 = system: HOP-62
How it was run: as §1

NCI-H1915 = system: NCI-H1915
How it was run: as §1

NCI-H2009 = system: NCI-H2009
How it was run: as §1

SW 1573 = system: SW 1573
How it was run: as §1

COR-L 105 = system: COR-L 105
How it was run: as §1

NCI-H1395 = system: NCI-H1395
How it was run: as §1

NCI-H23 = system: NCI-H23
How it was run: as §1

HARA = system: HARA
How it was run: as §1

NCI-H2228 = system: NCI-H2228
How it was run: as §1

SK-LU-1 = system: SK-LU-1
How it was run: as §1

CAL-12T = system: CAL-12T
How it was run: as §1

NCI-H1755 = system: NCI-H1755
How it was run: as §1

Question: Which results are given for Clc1ccc(Nc2nnc(Cc3ccncc3)c3ccccc23)cc1 [Vatalanib] + COc1cc2c(Oc3ccc(NC(=O)C4(C(=O)Nc5ccc(F)cc5)CC4)cc3F)ccnc2cc1OCCCN1CCOCC1 [Foretinib] (partner 0.25 µM)?
Answer: relative viability (HCC-366; first compound 0.04 µM): 0.85; relative viability (HCC-366; first compound 0.1265 µM): 0.8; relative viability (HCC-366; first compound 0.4 µM): 0.895; relative viability (HCC-366; first compound 1.265 µM): 0.885; relative viability (HCC-366; first compound 4 µM): 0.949; relative viability (NCI-H460; first compound 0.04 µM): 1.11; relative viability (NCI-H460; first compound 0.1265 µM): 0.894; relative viability (NCI-H460; first compound 0.4 µM): 0.93; relative viability (NCI-H460; first compound 1.265 µM): 0.934; relative viability (NCI-H460; first compound 4 µM): 1.06; relative viability (LCLC-103H; first compound 0.04 µM): 0.829; relative viability (LCLC-103H; first compound 0.1265 µM): 0.705; relative viability (LCLC-103H; first compound 0.4 µM): 0.752; relative viability (LCLC-103H; first compound 1.265 µM): 0.739; relative viability (LCLC-103H; first compound 4 µM): 0.756; relative viability (NCI-H1975; first compound 0.04 µM): 0.968; relative viability (NCI-H1975; first compound 0.1265 µM): 0.885; relative viability (NCI-H1975; first compound 0.4 µM): 0.953; relative viability (NCI-H1975; first compound 1.265 µM): 0.866; relative viability (NCI-H1975; first compound 4 µM): 0.832; relative viability (NCI-H727; first compound 0.04 µM): 0.901; relative viability (NCI-H727; first compound 0.1265 µM): 0.724; relative viability (NCI-H727; first compound 0.4 µM): 0.703; relative viability (NCI-H727; first compound 1.265 µM): 0.572; relative viability (NCI-H727; first compound 4 µM): 0.925; relative viability (NCI-H1355; first compound 0.04 µM): 1.01; relative viability (NCI-H1355; first compound 0.1265 µM): 1.01; relative viability (NCI-H1355; first compound 0.4 µM): 1.02; relative viability (NCI-H1355; first compound 1.265 µM): 0.847; relative viability (NCI-H1355; first compound 4 µM): 0.971; relative viability (HCC-827; first compound 0.04 µM): 1.07; relative viability (HCC-827; first compound 0.1265 µM): 1.09; relative viability (HCC-827; first compound 0.4 µM): 0.942; relative viability (HCC-827; first compound 1.265 µM): 0.927; relative viability (HCC-827; first compound 4 µM): 1.03; relative viability (A-427; first compound 0.04 µM): 1.06; relative viability (A-427; first compound 0.1265 µM): 0.993; relative viability (A-427; first compound 0.4 µM): 1.14; relative viability (A-427; first compound 1.265 µM): 0.993; relative viability (A-427; first compound 4 µM): 1.11; relative viability (NCI-H1437; first compound 0.04 µM): 1.25; relative viability (NCI-H1437; first compound 0.1265 µM): 1.27; relative viability (NCI-H1437; first compound 0.4 µM): 1.4; relative viability (NCI-H1437; first compound 1.265 µM): 1.21; relative viability (NCI-H1437; first compound 4 µM): 1.26; relative viability (EMC-BAC-2; first compound 0.04 µM): 0.826; relative viability (EMC-BAC-2; first compound 0.1265 µM): 1.01; relative viability (EMC-BAC-2; first compound 0.4 µM): 1.09; relative viability (EMC-BAC-2; first compound 1.265 µM): 0.919; relative viability (EMC-BAC-2; first compound 4 µM): 1.02; relative viability (HOP-62; first compound 0.04 µM): 1.16; relative viability (HOP-62; first compound 0.1265 µM): 1.07; relative viability (HOP-62; first compound 0.4 µM): 1.13; relative viability (HOP-62; first compound 1.265 µM): 1.01; relative viability (HOP-62; first compound 4 µM): 1.12; relative viability (NCI-H1915; first compound 0.04 µM): 1.09; relative viability (NCI-H1915; first compound 0.1265 µM): 1.04; relative viability (NCI-H1915; first compound 0.4 µM): 1.11; relative viability (NCI-H1915; first compound 1.265 µM): 1.05; relative viability (NCI-H1915; first compound 4 µM): 1.13; relative viability (NCI-H2009; first compound 0.04 µM): 1.22; relative viability (NCI-H2009; first compound 0.1265 µM): 1.14; relative viability (NCI-H2009; first compound 0.4 µM): 1.24; relative viability (NCI-H2009; first compound 1.265 µM): 1.2; relative viability (NCI-H2009; first compound 4 µM): 1.26; relative viability (SW 1573; first compound 0.04 µM): 0.997; relative viability (SW 1573; first compound 0.1265 µM): 0.857; relative viability (SW 1573; first compound 0.4 µM): 1.05; relative viability (SW 1573; first compound 1.265 µM): 0.929; relative viability (SW 1573; first compound 4 µM): 0.9; relative viability (COR-L 105; first compound 0.04 µM): 0.885; relative viability (COR-L 105; first compound 0.1265 µM): 1.23; relative viability (COR-L 105; first compound 0.4 µM): 1.24; relative viability (COR-L 105; first compound 1.265 µM): 0.785; relative viability (COR-L 105; first compound 4 µM): 1.12; relative viability (NCI-H1395; first compound 0.04 µM): 0.994; relative viability (NCI-H1395; first compound 0.1265 µM): 1.1; relative viability (NCI-H1395; first compound 0.4 µM): 1.08; relative viability (NCI-H1395; first compound 1.265 µM): 0.938; relative viability (NCI-H1395; first compound 4 µM): 1.02; relative viability (NCI-H23; first compound 0.04 µM): 0.928; relative viability (NCI-H23; first compound 0.1265 µM): 0.945; relative viability (NCI-H23; first compound 0.4 µM): 0.931; relative viability (NCI-H23; first compound 1.265 µM): 0.796; relative viability (NCI-H23; first compound 4 µM): 1.02; relative viability (HARA; first compound 0.04 µM): 0.853; relative viability (HARA; first compound 0.1265 µM): 0.757; relative viability (HARA; first compound 0.4 µM): 0.807; relative viability (HARA; first compound 1.265 µM): 0.92; relative viability (HARA; first compound 4 µM): 0.852; relative viability (NCI-H2228; first compound 0.04 µM): 0.941; relative viability (NCI-H2228; first compound 0.1265 µM): 0.928; relative viability (NCI-H2228; first compound 0.4 µM): 0.968; relative viability (NCI-H2228; first compound 1.265 µM): 0.946; relative viability (NCI-H2228; first compound 4 µM): 0.778; relative viability (SK-LU-1; first compound 0.04 µM): 0.807; relative viability (SK-LU-1; first compound 0.1265 µM): 0.741; relative viability (SK-LU-1; first compound 0.4 µM): 0.979; relative viability (SK-LU-1; first compound 1.265 µM): 0.877; relative viability (SK-LU-1; first compound 4 µM): 0.809; relative viability (CAL-12T; first compound 0.04 µM): 1.07; relative viability (CAL-12T; first compound 0.1265 µM): 1.16; relative viability (CAL-12T; first compound 0.4 µM): 1.05; relative viability (CAL-12T; first compound 1.265 µM): 1.04; relative viability (CAL-12T; first compound 4 µM): 1.05; relative viability (NCI-H1755; first compound 0.04 µM): 0.88; relative viability (NCI-H1755; first compound 0.1265 µM): 0.964; relative viability (NCI-H1755; first compound 0.4 µM): 0.954; relative viability (NCI-H1755; first compound 1.265 µM): 0.905; relative viability (NCI-H1755; first compound 4 µM): 0.846
